This is an account of results in US10160763B2, “WDR5 inhibitors and modulators” (Vanderbilt University, priority 2016, dated 2018).

Molecules are shown by their SMILES.

This assay concerns the target WDR5 (Δ23, residues 24-334) (Homo sapiens, UniProt P61964). The experiment in a line: biochemical. As to conditions: Kd (M), FPA-based binding affinity at the WDR5 WIN site; IC50 converted to Kd by modified Cheng-Prusoff equation; average of two experiments.
Regarding `CC1CN(c2ccc(-c3cn4c(n3)CCC4)cc2CNC(=O)Cc2ccc(Cl)c(Cl)c2)CC(C)O1` (stereo not drawn) [B165], binding was put at a Kd of 3.32e-06 M. Under `O=C(Nc1cc(Cl)cc(Cl)c1)N(Cc1cccc(-c2cn3c(n2)CCC3)c1)CC1CC1` [B50] stands 4.8e-07 M; under `O=C(CC1CCNCC1)NCc1cccc(-c2cn3c(n2)CCC3)c1` [B150], 1e-05 M. The result for `O=C(Cc1cccc(OC(F)(F)F)c1)NCc1cccc(-c2cn3c(n2)CCC3)c1` [B137] reads 2.6e-08 M; that for `O=C(CCc1ccccc1)N(Cc1cccc(-c2cn3c(n2)CCC3)c1)CC1CC1` [B19], 1.82e-06 M; that for `O=C(NCc1cccc(-c2cn3c(n2)CCC3)c1)Nc1cc(Cl)cc(Cl)c1` [B33], 3.52e-06 M. Under `COc1cc(C(=O)NC(C)c2cccc(-c3cn4c(n3)CCC4)c2)ccc1C` (stereo not drawn) [B201] stands 2.3e-08 M; under `CC(=O)N1CCCC(C(=O)NCc2cc(-c3cn4c(n3)CCC4)ccc2OC2CCC2)C1` (stereo not drawn) [B164], 2.31e-07 M. In the case of `CC(=O)N1CC(CC(=O)NCc2cccc(-c3cn4c(n3)CCC4)c2)C1` [B141], binding was characterised by a dissociation constant (Kd) of 1e-08 M. For `COc1cccc(C(=O)N(Cc2cc(-c3cn4c(n3)CCC4)ccc2C)CC2CC2)c1` [B23], binding was characterised by a dissociation constant (Kd) of 3.35e-07 M. Against the preceding molecule, the Kd is about 34-fold higher. Under `CC(c1cccc(-c2cn3c(n2)CCC3)c1)N(CC1CC1)C(=O)Cc1ccc(Cl)c(Cl)c1` (stereo not drawn) [B190] stands 1.1e-08 M; under `COc1cc(C(=O)NCc2cc(-c3cn4c(n3)CCC4)ccc2N2CC(C)OC(C)C2)ccc1C` (stereo not drawn) [B174], 1.12e-07 M.

As to `O=C(Cc1ccc2c(c1)OCO2)NCc1cccc(-c2cn3c(n2)CCC3)c1` [B154], the equilibrium dissociation constant (Kd) (commonly the equilibrium constant for the complex coming apart) came to 1e-09 M. The result for `CCC(NC(=O)Cc1ccc(F)c(Cl)c1)c1cccc(-c2cn3c(n2)CCC3)c1` (stereo not drawn) [B217] reads 3.2e-08 M. Consider `O=C(Cc1ccc(Cl)c(Cl)c1)N(Cc1cc(-c2cn3c(n2)CCC3)ccc1N1CCCC1)CC1CC1` [B146], for which the affinity, expressed as Kd, was 4.16e-07 M. The result for `COc1cc(C(=O)N(Cc2cc(-c3cn4c(n3)CCC4)ccc2N2CCOCC2)CC2CC2)ccc1C` [B200] reads 4.04e-06 M; that for `O=C(Cc1ccc(Cl)c(Cl)c1)N(Cc1cc(-c2cn3c(n2)CCC3)ccc1N1CCOCC1)CC1CC1` [B175, N-(Cyclopropylmethyl)-2-(3,4-dichlorophenyl)-N-(5-(6,7-dihydro-5H-pyrrolo[1,2-a]imidazol-2-yl)-2-morpholinobenzyl)acetamide], 5.2e-08 M; that for `CCC(=O)N1CCCC(C(=O)NC(C)c2cccc(-c3cn4c(n3)CCC4)c2)C1` (stereo not drawn) [B211], 1.1e-08 M.

In turn, `COc1cccc(C(=O)NCc2cc(-c3cn4c(n3)CCC4)ccc2OC2CCCC2)c1` [B117] came in with a Kd of 1e-05 M. Under `O=C(Cc1ccc(F)c(Cl)c1)NCc1cc(-c2cn3c(n2)CCC3)cnc1OC1CCC1` [B224] stands 6.1e-08 M; under `O=C(CCc1cccc(Cl)c1)NCc1cccc(-c2cn3c(n2)CCC3)c1` [B158], 4.99e-06 M; under `COc1ccc(C(=O)N(Cc2cccc(-c3cn4c(n3)CCC4)c2)C2CC2)cc1OC` [B53], 1.14e-06 M. In turn, `O=C(NCc1cccc(-c2cn3c(n2)CCC3)c1)C1CC1c1ccccc1` (stereo not drawn) [B39] gave an equilibrium dissociation constant (Kd) of 5.61e-07 M. Under `Cc1ccc(C(=O)NCc2cccc(-c3cn4c(n3)CCC4)c2)cc1Br` [B171] stands 6.26e-07 M; under `O=C(C1CCCNC1)N(Cc1cccc(-c2cn3c(n2)CCC3)c1)CC1CC1` (stereo not drawn) [B48], 2.71e-05 M; under `COc1cccc(C(=O)NCc2cc(-c3cn4c(n3)CCC4)ccc2N2CCCC2)c1` [B114], 4.73e-07 M. The result for `COc1cccc(CCC(=O)NCc2cccc(-c3cn4c(n3)CCC4)c2)c1` [B157] reads 9.1e-08 M. The result for `COc1ccc(CN(Cc2cccc(-c3cn4c(n3)CCC4)c2)C(=O)c2ccc(OC)c(OC)c2)cc1` [B65] reads 4.15e-07 M; that for `CC(NC(=O)Cc1ccc(F)c(Cl)c1)c1cc(-c2cn3c(n2)CCC3)ccc1OC1CCC1` (stereo not drawn) [B212], 4.7e-08 M.

Consider `COC(=O)c1cc(CN(CC2CC2)C(=O)c2ccc(OC)c(OC)c2)cc(-c2cn3c(n2)CCC3)c1` [B69], for which binding was put at a Kd of 3.05e-07 M.

On to `COc1cccc(C(=O)NCc2cc(-c3cn4c(n3)CCC4)ccc2N2CCOCC2)c1` [B139], for which the Kd was 1.84e-07 M. For `O=C(NCc1cccc(-c2cn3c(n2)CCC3)c1)Nc1ccccc1` [B22], the Kd came to 3.83e-06 M.

In turn, `COc1cc(C(=O)N(Cc2cc(-c3cn4c(n3)CCC4)ccc2N2CCOCC2)CC2CCOCC2)ccc1C` [B204] displayed a Kd of 2.6e-08 M. In the case of `O=C(Cc1ccc(Cl)c(Cl)c1)NCc1cc(-c2cn3c(n2)CCC3)ccc1OCc1ccccc1` [B116], the Kd stood at 2.76e-07 M. Under `COc1cccc(C(=O)N(Cc2ccccc2)Cc2cccc(-c3cn4c(n3)CCC4)c2)c1` [B35] stands 2.43e-07 M; under `O=C(Cc1cc(Cl)cc(Cl)c1)NCc1cccc(-c2cn3c(n2)CCC3)c1` [B18], 2.08e-07 M; under `CC(=O)N1CCCC(C(=O)NCc2cc(-c3cn4c(n3)CCC4)ccc2N2CCOCC2)C1` (stereo not drawn) [B156], 6.8e-08 M. The result for `CC(C(=O)N(Cc1cccc(-c2cn3c(n2)CCC3)c1)C(C)C)c1cc(Cl)cc(Cl)c1` (stereo not drawn) [B75] reads 4.1e-07 M; that for `O=C(NCc1cccc(-c2cn3c(n2)CCC3)c1)c1cccc(Cl)c1Cl` [B167], 3.8e-07 M. Under `COc1cc(C(=O)NC(C)c2cc(-c3cn4c(n3)CCC4)ccc2OC2CCC2)ccc1C` (stereo not drawn) [B207] stands 1.6e-08 M; under `COc1cccc(NC(=O)NCc2cccc(-c3cn4c(n3)CCC4)c2)c1` [B24], 2.05e-07 M. Take `CS(=O)(=O)N1CCCCC1C(=O)NCc1cccc(-c2cn3c(n2)CCC3)c1` (stereo not drawn) [B182]: the Kd was found to be 1.09e-06 M.

`COc1cccc(CC(=O)NCc2cccc(-c3cn4c(n3)CCC4)c2)c1` [B88] yielded a Kd of 8.9e-07 M.

For `COc1cccc(C(=O)NCc2cc(-c3cn4c(n3)CCC4)ccc2Oc2ccccc2)c1` [B119], the affinity, expressed as Kd, was 1.8e-08 M. The result for `O=C(NCc1cccc(-c2cn3c(n2)CCC3)c1)C1CCNCC1` [B27] reads 4.19e-06 M. The result for `N#Cc1cccc(C(=O)NCc2cccc(-c3cn4c(n3)CCC4)c2)c1` [B172] reads 2.18e-07 M; that for `COc1cccc(C(=O)N(Cc2cccc(-c3cn4c(n3)CCC4)c2)CC(C)C)c1` [B85], 2.85e-06 M; that for `COc1cccc(C(=O)N(Cc2cc(C)cc(-c3cn4c(n3)CCC4)c2)CC2CC2)c1` [B28], 7.24e-07 M. Under `O=C(Cc1ccc(O)c(Cl)c1)NCc1cccc(-c2cn3c(n2)CCC3)c1` [B120] stands 2.32e-07 M; under `Cc1ccccc1-c1ccc(-c2cn3c(n2)CCC3)cc1CNC(=O)Cc1ccc(Cl)c(Cl)c1` [B145], 6.77e-06 M. On to `O=C(NCc1cccc(-c2cn3c(n2)CCC3)c1)C1CCCN(C(=O)C2CC2)C1` (stereo not drawn) [B187], for which binding was characterised by a dissociation constant (Kd) of 9.47e-07 M.

Molecule `O=C(Cc1cccc(Br)c1)NCc1cccc(-c2cn3c(n2)CCC3)c1` [B136] showed an equilibrium dissociation constant (Kd) of 3.09e-07 M.

As for `COc1cccc(C(=O)NCc2cc(-c3cn4c(n3)CCC4)ccc2N2CC(C)OC(C)C2)c1` (stereo not drawn) [B180], the Kd turned out to be 3.07e-07 M. Under `Cc1cc(C(=O)N(Cc2cccc(-c3cn4c(n3)CCC4)c2)CC2CC2)ccc1Cl` [B44] stands 2.96e-05 M. For the molecule `CS(=O)(=O)NCc1cccc(C(=O)NCc2cccc(-c3cn4c(n3)CCC4)c2)c1` [B183], the Kd turned out to be 1.34e-06 M. `CC(C)C(=O)N1CCCC(C(=O)NCc2cccc(-c3cn4c(n3)CCC4)c2)C1` (stereo not drawn) [B185] registered a dissociation constant (Kd) of 1.55e-07 M. This Kd lies about 8.6-fold lower than the previous one. Molecule `O=C(Cc1ccc(Cl)c(Cl)c1)NCc1cc(-c2cn3c(n2)CCC3)ccc1Oc1ccccc1` [B125] returned a Kd of 2.2e-07 M. Under `Cc1cc(Cl)cc(C(=O)NCc2cccc(-c3cn4c(n3)CCC4)c2)c1` [B160] stands 1.81e-06 M. The result for `O=C(NCc1cccc(-c2cn3c(n2)CCC3)c1)C1CCCN(C(=O)CC(F)(F)F)C1` (stereo not drawn) [B184] reads 5.8e-08 M; that for `COc1cccc(C(=O)N(Cc2cccc(-c3cn4c(n3)CCC4)c2)C(C2CC2)C2CC2)c1` [B81], 1.18e-07 M; that for `O=C(Cc1ccc(Cl)nc1)NCc1cccc(-c2cn3c(n2)CCC3)c1` [B135], 8.7e-08 M.

As to `CCC(NC(=O)c1ccc(C)c(OC)c1)c1cccc(-c2cn3c(n2)CCC3)c1` (stereo not drawn) [B215], the dissociation constant (Kd) stood at 1.7e-08 M. Under `O=C(NCc1cccc(-c2cn3c(n2)CCC3)c1)c1cccc2cccnc12` [B14] stands 5.19e-06 M. Under `Cc1cnc(Cl)c(C(=O)NCc2cccc(-c3cn4c(n3)CCC4)c2)c1` [B169] stands 6.68e-07 M. The result for `Cc1ccc(C(=O)NCc2cccc(-c3cn4c(n3)CCC4)c2)cc1C` [B21, N-(3-(6,7-Dihydro-5H-pyrrolo[1,2-a]imidazol-2-yl)benzyl)-3,4-dimethylbenzamide] reads 7.04e-07 M; that for `COc1cccc(C(=O)N(Cc2cc(-c3cn4c(n3)CCC4)ccc2N2CCCC2)CC2CC2)c1` [B102], 5.1e-07 M. `O=C(NCc1cccc(-c2cn3c(n2)CCC3)c1)c1cc(Cl)cc(Cl)c1` [B5] showed a Kd of 2.28e-06 M. The result for `COc1cccc(C(=O)N(Cc2cccc(-c3cn4c(n3)CCC4)c2)CC2CCCCC2)c1` [B36] reads 2.58e-07 M; that for `CC(=O)N1CCCC(C(=O)NC(C)c2cccc(-c3cn4c(n3)CCC4)c2)C1` (stereo not drawn) [B209], 1e-08 M; that for `CC(NC(=O)Cc1ccc(F)c(Cl)c1)c1cc(-c2cn3c(n2)CCC3)ccc1N1CCOCC1` (stereo not drawn) [B214], 4e-08 M. The result for `COc1cc(C(=O)N(Cc2cc(-c3cn4c(n3)CCC4)ccc2N2CCCC2)CC2CC2)ccc1C` [B179] reads 3.62e-06 M. In turn, `Cc1ccc(-c2ccc(-c3cn4c(n3)CCC4)cc2CNC(=O)Cc2ccc(Cl)c(Cl)c2)cc1` [B163] yielded a Kd of 1e-05 M. Under `O=C(NCc1cccc(-c2cn3c(n2)CCC3)c1)c1ccc2c(c1)OCCO2` [B54] stands 8.08e-07 M. Regarding `O=C(Cc1ccc(Br)cc1)NCc1cccc(-c2cn3c(n2)CCC3)c1` [B106], the affinity, expressed as Kd, was 1.33e-07 M. Molecule `CC(=O)N1CCCC(C(=O)NC(C)c2cc(-c3cn4c(n3)CCC4)ccc2OC2CCC2)C1` (stereo not drawn) [B208] yielded a Kd of 2.2e-08 M. The result for `CC(=O)N1CCCC(C(=O)N(Cc2cc(-c3cn4c(n3)CCC4)ccc2OC2CCC2)CC2CC2)C1` (stereo not drawn) [B161] reads 1e-05 M; that for `CC(NC(=O)Cc1ccc(F)c(Cl)c1)c1cc(-c2cn3c(n2)CCC3)ccc1F` (stereo not drawn) [B222], 9.9e-08 M. Under `COc1cccc(C(=O)NC(C)c2cccc(-c3cn4c(n3)CCC4)c2)c1` (stereo not drawn) [B205] stands 2.3e-08 M.
